Article PMC7073886, “Structure–Bioactivity Relationships of Lapatinib Derived Analogs against Schistosoma mansoni” (ACS Medicinal Chemistry Letters, 2020)
One block for each compound: values may come before it.

Key:
adult S. mansoni = experiment: Phenotypic screen of adult S. mansoni worms, severity scores and descriptors; assay type: cell-based, Schistosoma mansoni; conditions: for Descriptors (10 µM) 1 h / Severity Scores (10 μM) 1 h / Severity Scores (10 μM) 5 h / Severity Scores (10 μM) 24 h / Severity Scores (10 μM) 48 h / Descriptors (10 µM) 5 h / Descriptors (10 µM) 24 h / Descriptors (10 µM) 48 h: adult S. mansoni; for Descriptors (10 µM) 1 h / Descriptors (10 µM) 5 h / Descriptors (10 µM) 24 h / Descriptors (10 µM) 48 h: phenotypic descriptors; for Severity Scores (10 μM) 1 h / Severity Scores (10 μM) 5 h / Severity Scores (10 μM) 24 h / Severity Scores (10 μM) 48 h: scale 0 (no activity) to 4 (maximal activity); for bioactivity against adult S. mansoni: adult schistosomes; for Severity Scores (10 μM) 1 h / Severity Scores (10 μM) 5 h / Severity Scores (10 μM) 24 h / Severity Scores (10 μM) 48 h / bioactivity against adult S. mansoni: 10 μM
Description: Because the schistosome parasite can present multiple and dynamic phenotypic responses to chemical insult,[16] we employ a constrained nomenclature of descriptors to describe the changes in the parasite as a function of time and concentration (e.g., motility, density, and shape; and in the case of the adult parasite, an inability to adhere to the bottom of the assay dish). These descriptors are converted into severity scores on a scale of 0 (green)–4 (severest/red) that allow for partially quantitative comparisons of compound effects.[1]−[19] […] The descriptors themselves and their respective scores are detailed in the Supporting Information, Table S1. Severity score data are presented in the results (with the corresponding descriptors detailed in the Supporting Information, Tables S2–S8), and eight new analogs developed and synthesized in support of this effort are described. Finally, absorption, distribution, metabolism and excretion (ADME) data of all compounds presented in this work are reported in the Supporting Information, Table S15.
Table S1. Descriptors and associated severity scores used for S. mansoni adults.
R (rounded or shape altered 1
On sides (adults unable to 1
Shrunk (adults are shorter 1
surface (tegument) of adults)
dfailed to create analytical method
Maintenance of the Schistosoma mansoni life cycle (NMRI isolate), the preparation of adult worms (≥ 42-
days-old), and their co-incubation with test compounds were as described.7-9 Phenotypic responses were
visually recorded using a constrained nomenclature and converted to severity scores on a scale from zero
(no activity) to 4 (maximal activity).8, 9 Use of hamsters for maintaining the S. mansoni life-cycle was
approved by the Institutional Animal Care and Use Committee of the University of California San Diego.
The human myelomonocytic cell line THP -1 was grown at 37 °C and 5% CO2 in RPMI-1640 supplemented
with 10% iFBS, 2 mM glutamate, 100 U/mL penicillin and […] streptomycin.
Drug toxicity to HepG2 cells .10 HepG2 cells line were obtained from the American Type Culture
Collection and cultured in Minimal Essential Medium (MEM) supplemented with 0.19% sodium
bicarbonate, 10% Fetal Bovine Serum, 2 mM L -glutamine, 0.1 mM MEM non-essential amino, 0.009
mg/mL insulin, 1.76 mg/mL bovine serum albumin. The viability of the cells was measured using the MTT
(thiazolyl blue reduction) method. Briefly, ninety -six-well plates were seeded with 2.5 × 10^4 cells/well in
170 ml of culture medium and incubated overnight in 5% CO 2 at 37 °C. Cells were exposed to different
experimental compounds in DMSO. After 48 hours incubation, the viability of the cells was assessed using
MTT (thiazolyl blue reduction) as a dose response assay (11 two -fold serial dilutions) to obtain a calculated
IC50 determination. 4-Azaindolo[2,1-b]quinazoline-6,12-dione is used as a toxicity positive control and
each assay plate includes the following 3 additional controls: a) background control: no cells and no drug
was added, b) target control: cells added but no drugs, and c) DMSO control: same as the target control
except the culture media contains 0.6% DMSO. Absorbance was determined in all wells using a Perkin
Elmer, Ensight plate reader. The fifty percent inhibitory concentrations (IC50’s) were determined using
GraphPad Prism nonlinear regr ession (sigmoidal dose -response, variable slope) equation .
ADME Experiment Protocols
Aqueous pH 7.4 Solubility. Compounds were dried down from 10 mM DMSO solutions using centrifugal
evaporation technique. Phosphate buffer (0.1 M pH 7.4) was added and StirStix were inserted in the glass
vials, with shaking then performed at a constant temperature of 25 °C for 20 -24 h. This step was followed
by double centrifugation with a tip wash in between, to ensure that no residues of the dried compounds
interfere. The solutions were diluted before analysis and quantification using LC/MS/MS was performed.

Rat hepatocyte Clint = assay type: in vitro ADME; conditions: rat hepatocytes, intrinsic clearance; read-out: RH CLint
[1] = Log D7.4 shake-flask octanol-water; assay type: physicochemical; conditions: pH 7.4
Procedure: Log D7.4. Shake-flask octanol-water distribution coefficient was determined at pH 7.4 (Log D7.4). The aqueous solution used is 10 mM sodium phosphate pH 7.4 buffer. The method has been validated for Log D7.4 ranging from -2 to 5.0.
Human Plasma Protein Binding (PPB). PPB was determined using equilibrium dialysis (RED device) to separate free from bound compound. The amount of compound in plasma (10 µM initial concentration) and in dialysis buffer (pH 7.4 phosphate buffer) was measured by LC-MS/MS after equilibration at 37 °C in a dialysis chamber. The fraction unbound (fu) is reported.
Human Liver Microsomal Clint. In vitro intrinsic clearance was determined from human liver microsomes using a standard approach.11 Following incubation and preparation, the samples were analyzed using […]
Rat Hepatocyte Clint. In vitro intrinsic clearance was determined from rat hepatocytes using a standard approach.11 Following incubation and preparation, the samples were analyzed using LC/MS/MS. Refined […]
Calculated LogP and LogD values. Both LogP and LogD predictions are based on a modified version of the method12 where the predicted partition coefficients are composed of the molecules’ atomic increments.
General Chemistry. All starting materials were commercially obtained and were used without further purification, unless specified. Reaction solvents were purified by passage through alumina columns on a purification system manufactured by Innovative Technology (Newburyport, MA). NMR spectra were obtained on Varian NMR systems, operating at 400 or 500 MHz for 1 H acquisitions. LCMS analysis was performed using a Waters AllianceHT e2795 reverse phase HPLC (Waters SunFire C18 4.6 × 50 mm, 3.5 μm column), with a Waters 2996 photodiode array detector scanning from 210 nm to 600 nm, and Waters Micromass ZQ detector (electrospray ionization). Where required, final compounds were purified by preparative reverse phase HPLC (columns Waters Symmetry RP8 30 × 50 mm, 5 μm column, or OBD RP18 30 × 50 mm, 5 μm), with a single wavelength UV−visible detector and Waters Micromass ZQ (electrospray ionization).

- hepatocyte CLint (Rat hepatocyte Clint): 120 µL/min/1e6 cells
- logD [1]: 3.4
SMILES: COc1ccc(NC(=O)c2ccc(-c3cnc(N4CCCN(C)CC4)nc3)cc2O)cc1Cl [7b]
- Descriptors (10 µM) 1 h (adult S. mansoni): none
- Severity Scores (10 μM) 1 h (adult S. mansoni): 0
- Severity Scores (10 μM) 5 h (adult S. mansoni): 1
- Severity Scores (10 μM) 24 h (adult S. mansoni): 2
- Severity Scores (10 μM) 48 h (adult S. mansoni): 4
- bioactivity against adult S. mansoni (adult S. mansoni): minimal bioactivity after 5 h and potent activity after 48 h

- hepatocyte CLint (Rat hepatocyte Clint): 30 µL/min/1e6 cells
- logD [1]: 2.7
SMILES: CCN1CCCN(c2ncc(-c3ccc4c(Nc5cnccn5)ccnc4c3)cn2)CC1 [4e]
- Descriptors (10 µM) 1 h (adult S. mansoni): none
- Severity Scores (10 μM) 1 h (adult S. mansoni): 0
- Descriptors (10 µM) 5 h (adult S. mansoni): none
- Severity Scores (10 μM) 5 h (adult S. mansoni): 0
- Descriptors (10 µM) 24 h (adult S. mansoni): none
- Severity Scores (10 μM) 24 h (adult S. mansoni): 0
- Descriptors (10 µM) 48 h (adult S. mansoni): none
- Severity Scores (10 μM) 48 h (adult S. mansoni): 0

- hepatocyte CLint (Rat hepatocyte Clint): 24 µL/min/1e6 cells
- logD [1]: 2.9
SMILES: Cc1cnc(Nc2ccnc3cc(-c4cnc(N5CCCN(C)CC5)nc4)ccc23)cn1 [5b]
- Descriptors (10 µM) 1 h (adult S. mansoni): none
- Severity Scores (10 μM) 1 h (adult S. mansoni): 0
- Descriptors (10 µM) 5 h (adult S. mansoni): none
- Severity Scores (10 μM) 5 h (adult S. mansoni): 0
- Descriptors (10 µM) 24 h (adult S. mansoni): Dark, S, on sides
- Severity Scores (10 μM) 24 h (adult S. mansoni): 3
- Severity Scores (10 μM) 48 h (adult S. mansoni): 4
- bioactivity against adult S. mansoni (adult S. mansoni): bioactivity recorded after 24 h

- hepatocyte CLint (Rat hepatocyte Clint): 54 µL/min/1e6 cells
- logD [1]: 2.6
SMILES: CN1CCCN(c2ncc(-c3ccc4c(Nc5cnccn5)ccnc4c3)cn2)CC1 [4d]
- Descriptors (10 µM) 1 h (adult S. mansoni): none
- Severity Scores (10 μM) 1 h (adult S. mansoni): 0
- Descriptors (10 µM) 5 h (adult S. mansoni): none
- Severity Scores (10 μM) 5 h (adult S. mansoni): 0
- Descriptors (10 µM) 24 h (adult S. mansoni): none
- Severity Scores (10 μM) 24 h (adult S. mansoni): 0
- Descriptors (10 µM) 48 h (adult S. mansoni): none
- Severity Scores (10 μM) 48 h (adult S. mansoni): 0
- bioactivity against adult S. mansoni (adult S. mansoni): complete loss in activity

- hepatocyte CLint (Rat hepatocyte Clint): 4.2 µL/min/1e6 cells
- logD [1]: 0.3
SMILES: CN1CCN(c2ncc(-c3ccc4c(NC5CCC(N(C)C)CC5)ccnc4c3)cn2)CC1 (stereo not drawn) [S1a]
- Descriptors (10 µM) 1 h (adult S. mansoni): none
- Severity Scores (10 μM) 1 h (adult S. mansoni): 0
- Descriptors (10 µM) 5 h (adult S. mansoni): none
- Severity Scores (10 μM) 5 h (adult S. mansoni): 0
- Descriptors (10 µM) 24 h (adult S. mansoni): none
- Severity Scores (10 μM) 24 h (adult S. mansoni): 0
- bioactivity against adult S. mansoni (adult S. mansoni): no significant bioactivity

- hepatocyte CLint (Rat hepatocyte Clint): 17 µL/min/1e6 cells
- logD [1]: 2.2
SMILES: CN1C[C@H]2C[C@@H]1CN2c1ncc(-c2ccc3c(Nc4cnccn4)ccnc3c2)cn1 [4a]
- Descriptors (10 µM) 1 h (adult S. mansoni): none
- Severity Scores (10 μM) 1 h (adult S. mansoni): 0
- Descriptors (10 µM) 5 h (adult S. mansoni): none
- Severity Scores (10 μM) 5 h (adult S. mansoni): 0
- Severity Scores (10 μM) 24 h (adult S. mansoni): 1
- Severity Scores (10 μM) 48 h (adult S. mansoni): 1
- bioactivity against adult S. mansoni (adult S. mansoni): minimal bioactivity was observed after 48 h

SMILES: CN1CCN(c2ncc(-c3ccc4c(Nc5cnccn5)ccnc4c3)cn2)CC1 [compound 3]
- Descriptors (10 µM) 1 h (adult S. mansoni): none
- Severity Scores (10 μM) 1 h (adult S. mansoni): 0
- Descriptors (10 µM) 5 h (adult S. mansoni): none
- Severity Scores (10 μM) 5 h (adult S. mansoni): 0
- Descriptors (10 µM) 24 h (adult S. mansoni): none
- Severity Scores (10 μM) 24 h (adult S. mansoni): 0
- Descriptors (10 µM) 48 h (adult S. mansoni): none
- Severity Scores (10 μM) 48 h (adult S. mansoni): 0
- bioactivity against adult S. mansoni (adult S. mansoni): no bioactivity
